From paper PMC5063506, “A Novel Class of Small Molecule Agonists with Preference for Human over Mouse TLR4 Activation” (PLoS ONE, 2016)
Values after ≈ are worked out from the molar mass of the structure shown. One block for each compound: values may come before it.

Assays:
[1] = Intrinsic clearance in presence of human microsomes; assay type: in vitro ADME; details: read-out: Clint hm (intrinsic clearance, human microsomes)
From the text: (§1) Fig 2 Optimization stages of Ugi products as TLR4 agonists. *Human TLR-4 NFκB SEAP reporter assays; protocol as described in Methods. Data are reported as pEC50, or negative log of the EC50 values. **Clint rh / hm represents intrinsic clearance in presence of rat hepatocytes (μL/min/10^6 cells) and human microsomes (μL/min/mg protein). […] Thus a drug molecule with LogD >4 might be considered to be very lipophilic and therefore more likely to suffer from rapid metabolic turnover, poor solubility and receptor promiscuity; whereas a LogD range of 1–3 is more likely to be associated with optimal physicochemical and drug-like properties. ^††Solubility was measured by dissolution of solid samples in buffer at pH 7.4.

cytochrome P450 enzymes = test: Inhibition of cytochrome P450 enzymes (unpublished data); assay type: in vitro ADME; details: compared with earlier-stage, more lipophilic Ugi compounds
[2] = Intrinsic clearance in presence of rat hepatocytes; assay type: in vitro ADME; details: read-out: Clint rh (intrinsic clearance, rat hepatocytes)
From the text: as §1

[3] = Solubility by dissolution of solid samples in buffer; assay type: physicochemical; details: aqueous buffer, thermodynamic from solid; solid samples in buffer at pH 7.4
From the text: as §1

wild-type C57BL/6 mice = test: In vivo serum cytokines in wild-type C57BL/6 mice; design: species or system mouse; details: 50 μg IP, serum at 2 h (IL-12 p40, IL-6) and 6 h (IL-12 p40, MIG, RANTES)
From the text: The humanized TLR4/MD-2 mice, described in detail in [15], express human TLR4 and human MD-2 from bacterial artificial chromosome transgenes that were bred to the mouse TLR4/MD-2 double-knockout (DKO) on a C57BL/6J background. Because the hMD-2 BAC transgene is integrated on the Y-chromosome, only male mice were used in the study. Generally, hMD-2 BAC+ males are bred to hTLR4 BAC+ females (both on DKO background) and male pups were screened for the presence of hTLR4 BAC. Double positives served as the fully humanized TLR4/MD-2 mice and hTLR4 BAC negative mice served as functional KO. Wild-type C57BL/6 mice were bred in parallel. All breeding was performed in an SPF facility at the University of Washington and all protocols were approved by the University of Washington IACUC. For in vivo cytokines, mice were injected intraperitoneally with 50 μg of either AZ618 or MPL in 0.2 ml PBS. Mice were bled from the retroorbital sinus 2 h after injection and terminal cardiocentesis was performed at 6 h for the second blood sample. Serum samples were analyzed via MILLIPLEX kits (EMD Millipore).
C57BL/6 mice (6–12 per group) were immunized IP with 50 μg MPL or AZ618 and then were bled at 2 h via retro-orbital route and at 6 h via cardiac puncture. Serum was analyzed by multiplex Millipore kits for cytokine content. […]

mouse splenocytes = test: Cytokine induction in mouse splenocytes (mouse MILLIPLEX); assay type: cell-based, BALB/c mouse; details: 1 and 0.2 μg/ml, 24 h
Experimental: Splenocytes were isolated from naïve BALB/c mice by dissociating spleens with a GentleMACS (Miltenyi) instrument, then filtration through […] screens. For other species, blood was obtained through venipuncture or cardiac puncture into heparinized tubes, then diluted 1:1 with PBS or HBSS and layered onto Ficoll-Histopaque (GE Healthcare) for blood from healthy human volunteers and cynomolgus macaques, Lympholyte-Mammal (Cedarlane Labs) for New Zealand white rabbits, Sprague-Dawley rats, Hartley guinea pigs, cotton rats, and ferrets, followed by standard density centrifugation techniques. […]
PBMCs (human, cynomolgus macaque, guinea pig, ferret, rabbit, rat, and cotton rat) or splenocytes (mouse) were seeded onto 96-well flat bottom plates at 5 x 10^5 cells/well and stimulated with TLR4 agonists at 1 and 0.2 μg/ml for 24 h at 37°C. […] For human, cyno, mouse, and rat, cell-free SNs were analyzed via human, NHP, mouse, and rat MILLIPLEX kits. For GP, ferret, rabbit, and CR, cells were lysed by Millipore lysing buffer and snap frozen at -70 C until ready for analysis by Affymetrix QuantiGene 2.0 Plex kits. […] Signal was detected using a Bioplex 200 instrument (BioRad). […]
Fig 6 The Ugi compound-induced cytokine profile is similar to MPL and LPS in human PBMCs but not mouse splenocytes. […] SNs were analyzed via human and mouse MILLIPLEX kits. […]

microsomal CLint [1]: < 3 µL/min/mg
inhibition of one or more cytochrome P450 enzymes (cytochrome P450 enzymes): abolished
hepatocyte CLint [2]: < 5 µL/min/1e6 cells
solubility [3]: 129 µM (≈ 82.4 µg/mL)
SMILES: O=C(O)Cc1ccc(C(C(=O)NC2CCCC2)N(C(=O)c2cc(-c3ccccc3)n(-c3ccccc3)n2)c2ccc3c(c2)CCC3)cc1 (stereo not drawn) [AZ617]

SMILES: Cc1cc(C)cc(N(C(=O)c2cc(-c3ccccc3)n(-c3ccccc3)n2)C(C(=O)NC2CCCC2)c2ccc(CC(=O)O)cc2)c1 (stereo not drawn) [AZ618, 2-(4-(2-(cyclopentylamino)-1-(N-(3,5-dimethylphenyl)-1,5-diphenyl-1H-pyrazole-3-carboxamido)-2-oxoethyl)phenyl)acetic acid]
serum cytokine induction in wild-type C57BL/6 mice (wild-type C57BL/6 mice): not AZ618 induced

SMILES: CC(C)(C)c1ccc(N(C(=O)c2cc(-c3ccccc3)n(-c3ccccc3)n2)C(C(=O)NC2CCCC2)c2ccc(CC(=O)O)cc2)cc1 (stereo not drawn) [AZ902]
reactivity of mouse splenocytes (cytokine secretion) (mouse splenocytes): marginal activation
